Laboratory results taken from patent US20240315247A1, “MICROBIOCIDAL QUINOLINE DIHYDRO-(THIAZINE)OXAZINE DERIVATIVES” (SYNGENTA CROP PROTECTION AG, priority 2020, published 2024).

Tested on: not given
Assay: not given
Conditions: not given

Structure (SMILES) | melting point
CC1(COc2ccccc2)CC(C)(C)OC(c2cnc3c(F)c(F)ccc3c2)=N1 (stereo not drawn) [E.06, 2-(7,8-difluoro-3-quinolyl)-4,6,6-trimethyl-4-(phenoxymethyl)-5H-1,3-oxazine] | 105 to 107 °C
CC1(C)CC(CC(F)(F)F)N=C(c2cnc3c(F)c(F)ccc3c2)O1 (stereo not drawn) [E.09, 2-(7,8-difluoro-3-quinolyl)-6,6-dimethyl-4-(2,2,2-trifluoroethyl)-4,5-dihydro-1,3-oxazine] | 146 to 148 °C
CC(C)(C)CC1CC(C)(C)OC(c2cnc3c(F)c(F)ccc3c2)=N1 (stereo not drawn) [E.011, 2-(7,8-difluoro-3-quinolyl)-4-(2,2-dimethylpropyl)-6,6-dimethyl-4,5-dihydro-1,3-oxazine] | 112 to 113 °C

Tested on: Glomerella lagenarium (Colletotrichum laqenarium)
Assay: Glomerella lagenarium (Colletotrichum lagenarium) / liquid culture (Anthracnose)
Format: cell-based
Conditions: growth inhibition photometrically 3-4 days after application, compared to untreated control
Protocol: Glomerella lagenarium (Colletotrichum laqenarium)/liquid culture (Anthracnose) Conidia of the fungus from cryogenic storage are directly mixed into nutrient broth (PDB potato dextrose broth). After placing a (DMSO) solution of test compound into a microtiter plate (96-well format), the nutrient broth containing the fungal spores is added. The test plates are incubated at 24° C. and the inhibition of growth is measured photometrically 3-4 days after application.

Structure (SMILES) | inhibition of growth at 20 ppm
CC1(COc2ccc(Br)cc2)CC(C)(C)OC(c2cnc3c(F)cccc3c2)=N1 (stereo not drawn) [E.03, 4-[(4-bromophenoxy)methyl]-2-(8-fluoro-3-quinolyl)-4,6,6-trimethyl-5H-1,3-oxazine] | ≥ 80%
CC1(COc2ccc(F)cc2)CC(C)(C)OC(c2cnc3c(F)cccc3c2)=N1 (stereo not drawn) [E.04, 4-[(4-fluorophenoxy)methyl]-2-(8-fluoro-3-quinolyl)-4,6,6-trimethyl-5H-1,3-oxazine] | ≥ 80%
CC1(COc2ccccc2)CC(C)(C)OC(c2cnc3c(F)cccc3c2)=N1 (stereo not drawn) [E.08, 2-(8-fluoro-3-quinolyl)-4,6,6-trimethyl-4-(phenoxymethyl)-5H-1,3-oxazine] | ≥ 80%
CC(C)CC1CC(C)(C)OC(c2cnc3c(F)c(F)ccc3c2)=N1 (stereo not drawn) [E.012, 2-(7,8-difluoro-3-quinolyl)-4-isobutyl-6,6-dimethyl-4,5-dihydro-1,3-oxazine] | ≥ 80%
CC(C)CC1(C)CC(C)(C)OC(c2cnc3c(F)cccc3c2)=N1 (stereo not drawn) [E.013, 2-(8-fluoro-3-quinolyl)-4-isobutyl-4,6,6-trimethyl-5H-1,3-oxazine] | ≥ 80%
CC(C)CC1(C)CC(C)(C)OC(c2cnc3c(F)c(F)ccc3c2)=N1 (stereo not drawn) [E.014, 2-(7,8-difluoro-3-quinolyl)-4-isobutyl-4,6,6-trimethyl-5H-1,3-oxazine] | ≥ 80%
CC1(CC2CCCCC2)CC(C)(C)OC(c2cnc3c(F)c(F)ccc3c2)=N1 (stereo not drawn) [E.015, 4-(cyclohexylmethyl)-2-(7,8-difluoro-3-quinolyl)-4,6,6-trimethyl-5H-1,3-oxazine] | ≥ 80%
C=C(C)CC1(C)CC(C)(C)OC(c2cnc3c(F)c(F)ccc3c2)=N1 (stereo not drawn) [E.016, 2-(7,8-difluoro-3-quinolyl)-4,6,6-trimethyl-4-(2-methylallyl)-5H-1,3-oxazine] | ≥ 80%
CC(C)CC1(C)CC(C)(C(C)C)OC(c2cnc3c(F)cccc3c2)=N1 (stereo not drawn) [E.017, 2-(8-fluoro-3-quinolyl)-4-isobutyl-6-isopropyl-4,6-dimethyl-5H-1,3-oxazine] | ≥ 80%
CCC1(C)CC(C)(CC(C)C)N=C(c2cnc3c(F)cccc3c2)O1 (stereo not drawn) [E.018, 6-ethyl-2-(8-fluoro-3-quinolyl)-4-isobutyl-4,6-dimethyl-5H-1,3-oxazine] | ≥ 80%
C=C(C)CC1(C)CC(C)(C)OC(c2cnc3c(F)cccc3c2)=N1 (stereo not drawn) [E.019, 2-(8-fluoro-3-quinolyl)-4,6,6-trimethyl-4-(2-methylallyl)-5H-1,3-oxazine] | ≥ 80%
C=C(C)CC1(CC)CC(C)(C)OC(c2cnc3c(F)cccc3c2)=N1 (stereo not drawn) [E.020, 4-ethyl-2-(8-fluoro-3-quinolyl)-6,6-dimethyl-4-(2-methylallyl)-5H-1,3-oxazine] | ≥ 80%

Tested on: Botryotinia fuckeliana (Botrytis cinerea)
Assay: Botryotinia fuckeliana (Botrytis cinerea) / liquid culture (Gray mould)
Format: cell-based
Conditions: growth inhibition photometrically 3-4 days after application, compared to untreated control
Protocol: Botryotinia Fuckeliana (Botrytis cinerea)/Liquid Culture (Gray Mould) Conidia of the fungus from cryogenic storage are directly mixed into nutrient broth (Vogels broth). After placing a (DMSO) solution of test compound into a microtiter plate (96-well format), the nutrient broth containing the fungal spores is added. The test plates are incubated at 24° C. and the inhibition of growth is determined photometrically 3-4 days after application.

Structure (SMILES) | inhibition of growth at 20 ppm
CC1(COc2ccc(C#N)cc2)CC(C)(C)OC(c2cnc3c(F)cccc3c2)=N1 (stereo not drawn) [E.01, 4-[[2-(8-fluoro-3-quinolyl)-4,6,6-trimethyl-5H-1,3-oxazin-4-yl]methoxy]benzonitrile] | ≥ 80%
CC1(COc2ccc(Br)cc2Br)CC(C)(C)OC(c2cnc3c(F)cccc3c2)=N1 (stereo not drawn) [E.02, 4-[(2,4-dibromophenoxy)methyl]-2-(8-fluoro-3-quinolyl)-4,6,6-trimethyl-5H-1,3-oxazine] | ≥ 80%
CC1(COc2ccc(Br)cc2)CC(C)(C)OC(c2cnc3c(F)cccc3c2)=N1 (stereo not drawn) [E.03, 4-[(4-bromophenoxy)methyl]-2-(8-fluoro-3-quinolyl)-4,6,6-trimethyl-5H-1,3-oxazine] | ≥ 80%
CC1(COc2ccc(F)cc2)CC(C)(C)OC(c2cnc3c(F)cccc3c2)=N1 (stereo not drawn) [E.04, 4-[(4-fluorophenoxy)methyl]-2-(8-fluoro-3-quinolyl)-4,6,6-trimethyl-5H-1,3-oxazine] | ≥ 80%
Cc1nc2c(F)c(F)ccc2cc1C1=NC(C)(COc2ccccc2)CC(C)(C)O1 (stereo not drawn) [E.05, 2-(7,8-difluoro-2-methyl-3-quinolyl)-4,6,6-trimethyl-4-(phenoxymethyl)-5H-1,3-oxazine] | ≥ 80%
CC1(COc2ccccc2)CC(C)(C)OC(c2cnc3c(F)c(F)ccc3c2)=N1 (stereo not drawn) [E.06, 2-(7,8-difluoro-3-quinolyl)-4,6,6-trimethyl-4-(phenoxymethyl)-5H-1,3-oxazine] | ≥ 80%
CC1(C)CC(COc2ccccc2)N=C(c2cnc3c(F)c(F)ccc3c2)O1 (stereo not drawn) [E.07, 2-(7,8-difluoro-3-quinolyl)-6,6-dimethyl-4-(phenoxymethyl)-4,5-dihydro-1,3-oxazine] | ≥ 80%
CC1(COc2ccccc2)CC(C)(C)OC(c2cnc3c(F)cccc3c2)=N1 (stereo not drawn) [E.08, 2-(8-fluoro-3-quinolyl)-4,6,6-trimethyl-4-(phenoxymethyl)-5H-1,3-oxazine] | ≥ 80%
CC1(C)CC(CCC(F)(F)F)N=C(c2cnc3c(F)c(F)ccc3c2)O1 (stereo not drawn) [E.010, 2-(7,8-difluoro-3-quinolyl)-6,6-dimethyl-4-(3,3,3-trifluoropropyl)-4,5-dihydro-1,3-oxazine] | ≥ 80%
CC(C)(C)CC1CC(C)(C)OC(c2cnc3c(F)c(F)ccc3c2)=N1 (stereo not drawn) [E.011, 2-(7,8-difluoro-3-quinolyl)-4-(2,2-dimethylpropyl)-6,6-dimethyl-4,5-dihydro-1,3-oxazine] | ≥ 80%
CC(C)CC1CC(C)(C)OC(c2cnc3c(F)c(F)ccc3c2)=N1 (stereo not drawn) [E.012, 2-(7,8-difluoro-3-quinolyl)-4-isobutyl-6,6-dimethyl-4,5-dihydro-1,3-oxazine] | ≥ 80%
CC(C)CC1(C)CC(C)(C)OC(c2cnc3c(F)cccc3c2)=N1 (stereo not drawn) [E.013, 2-(8-fluoro-3-quinolyl)-4-isobutyl-4,6,6-trimethyl-5H-1,3-oxazine] | ≥ 80%
CC(C)CC1(C)CC(C)(C)OC(c2cnc3c(F)c(F)ccc3c2)=N1 (stereo not drawn) [E.014, 2-(7,8-difluoro-3-quinolyl)-4-isobutyl-4,6,6-trimethyl-5H-1,3-oxazine] | ≥ 80%
CC1(CC2CCCCC2)CC(C)(C)OC(c2cnc3c(F)c(F)ccc3c2)=N1 (stereo not drawn) [E.015, 4-(cyclohexylmethyl)-2-(7,8-difluoro-3-quinolyl)-4,6,6-trimethyl-5H-1,3-oxazine] | ≥ 80%
C=C(C)CC1(C)CC(C)(C)OC(c2cnc3c(F)c(F)ccc3c2)=N1 (stereo not drawn) [E.016, 2-(7,8-difluoro-3-quinolyl)-4,6,6-trimethyl-4-(2-methylallyl)-5H-1,3-oxazine] | ≥ 80%
CC(C)CC1(C)CC(C)(C(C)C)OC(c2cnc3c(F)cccc3c2)=N1 (stereo not drawn) [E.017, 2-(8-fluoro-3-quinolyl)-4-isobutyl-6-isopropyl-4,6-dimethyl-5H-1,3-oxazine] | ≥ 80%
CCC1(C)CC(C)(CC(C)C)N=C(c2cnc3c(F)cccc3c2)O1 (stereo not drawn) [E.018, 6-ethyl-2-(8-fluoro-3-quinolyl)-4-isobutyl-4,6-dimethyl-5H-1,3-oxazine] | ≥ 80%
C=C(C)CC1(C)CC(C)(C)OC(c2cnc3c(F)cccc3c2)=N1 (stereo not drawn) [E.019, 2-(8-fluoro-3-quinolyl)-4,6,6-trimethyl-4-(2-methylallyl)-5H-1,3-oxazine] | ≥ 80%
C=C(C)CC1(CC)CC(C)(C)OC(c2cnc3c(F)cccc3c2)=N1 (stereo not drawn) [E.020, 4-ethyl-2-(8-fluoro-3-quinolyl)-6,6-dimethyl-4-(2-methylallyl)-5H-1,3-oxazine] | ≥ 80%

Tested on: Monographella nivalis (Microdochium nivale)
Assay: Monographella nivalis (Microdochium nivale) / liquid culture (Foot rot cereals)
Format: cell-based
Conditions: growth inhibition photometrically 4-5 days after application, compared to untreated control
Protocol: Monographella nivalis (Microdochium nivale)/Liquid Culture (Foot Rot Cereals) Conidia of the fungus from cryogenic storage are directly mixed into nutrient broth (PDB potato dextrose broth). After placing a (DMSO) solution of test compound into a microtiter plate (96-well format), the nutrient broth containing the fungal spores is added. The test plates are incubated at 24° C. and the inhibition of growth is determined photometrically 4-5 days after application.

Structure (SMILES) | inhibition of growth at 20 ppm
CC1(COc2ccc(C#N)cc2)CC(C)(C)OC(c2cnc3c(F)cccc3c2)=N1 (stereo not drawn) [E.01, 4-[[2-(8-fluoro-3-quinolyl)-4,6,6-trimethyl-5H-1,3-oxazin-4-yl]methoxy]benzonitrile] | ≥ 80%
CC1(COc2ccc(Br)cc2Br)CC(C)(C)OC(c2cnc3c(F)cccc3c2)=N1 (stereo not drawn) [E.02, 4-[(2,4-dibromophenoxy)methyl]-2-(8-fluoro-3-quinolyl)-4,6,6-trimethyl-5H-1,3-oxazine] | ≥ 80%
CC1(COc2ccc(Br)cc2)CC(C)(C)OC(c2cnc3c(F)cccc3c2)=N1 (stereo not drawn) [E.03, 4-[(4-bromophenoxy)methyl]-2-(8-fluoro-3-quinolyl)-4,6,6-trimethyl-5H-1,3-oxazine] | ≥ 80%
CC1(COc2ccc(F)cc2)CC(C)(C)OC(c2cnc3c(F)cccc3c2)=N1 (stereo not drawn) [E.04, 4-[(4-fluorophenoxy)methyl]-2-(8-fluoro-3-quinolyl)-4,6,6-trimethyl-5H-1,3-oxazine] | ≥ 80%
Cc1nc2c(F)c(F)ccc2cc1C1=NC(C)(COc2ccccc2)CC(C)(C)O1 (stereo not drawn) [E.05, 2-(7,8-difluoro-2-methyl-3-quinolyl)-4,6,6-trimethyl-4-(phenoxymethyl)-5H-1,3-oxazine] | ≥ 80%
CC1(COc2ccccc2)CC(C)(C)OC(c2cnc3c(F)c(F)ccc3c2)=N1 (stereo not drawn) [E.06, 2-(7,8-difluoro-3-quinolyl)-4,6,6-trimethyl-4-(phenoxymethyl)-5H-1,3-oxazine] | ≥ 80%
CC1(C)CC(COc2ccccc2)N=C(c2cnc3c(F)c(F)ccc3c2)O1 (stereo not drawn) [E.07, 2-(7,8-difluoro-3-quinolyl)-6,6-dimethyl-4-(phenoxymethyl)-4,5-dihydro-1,3-oxazine] | ≥ 80%
CC1(COc2ccccc2)CC(C)(C)OC(c2cnc3c(F)cccc3c2)=N1 (stereo not drawn) [E.08, 2-(8-fluoro-3-quinolyl)-4,6,6-trimethyl-4-(phenoxymethyl)-5H-1,3-oxazine] | ≥ 80%
CC1(C)CC(CC(F)(F)F)N=C(c2cnc3c(F)c(F)ccc3c2)O1 (stereo not drawn) [E.09, 2-(7,8-difluoro-3-quinolyl)-6,6-dimethyl-4-(2,2,2-trifluoroethyl)-4,5-dihydro-1,3-oxazine] | ≥ 80%
CC1(C)CC(CCC(F)(F)F)N=C(c2cnc3c(F)c(F)ccc3c2)O1 (stereo not drawn) [E.010, 2-(7,8-difluoro-3-quinolyl)-6,6-dimethyl-4-(3,3,3-trifluoropropyl)-4,5-dihydro-1,3-oxazine] | ≥ 80%
CC(C)(C)CC1CC(C)(C)OC(c2cnc3c(F)c(F)ccc3c2)=N1 (stereo not drawn) [E.011, 2-(7,8-difluoro-3-quinolyl)-4-(2,2-dimethylpropyl)-6,6-dimethyl-4,5-dihydro-1,3-oxazine] | ≥ 80%
CC(C)CC1CC(C)(C)OC(c2cnc3c(F)c(F)ccc3c2)=N1 (stereo not drawn) [E.012, 2-(7,8-difluoro-3-quinolyl)-4-isobutyl-6,6-dimethyl-4,5-dihydro-1,3-oxazine] | ≥ 80%
CC(C)CC1(C)CC(C)(C)OC(c2cnc3c(F)cccc3c2)=N1 (stereo not drawn) [E.013, 2-(8-fluoro-3-quinolyl)-4-isobutyl-4,6,6-trimethyl-5H-1,3-oxazine] | ≥ 80%
CC(C)CC1(C)CC(C)(C)OC(c2cnc3c(F)c(F)ccc3c2)=N1 (stereo not drawn) [E.014, 2-(7,8-difluoro-3-quinolyl)-4-isobutyl-4,6,6-trimethyl-5H-1,3-oxazine] | ≥ 80%
CC1(CC2CCCCC2)CC(C)(C)OC(c2cnc3c(F)c(F)ccc3c2)=N1 (stereo not drawn) [E.015, 4-(cyclohexylmethyl)-2-(7,8-difluoro-3-quinolyl)-4,6,6-trimethyl-5H-1,3-oxazine] | ≥ 80%
C=C(C)CC1(C)CC(C)(C)OC(c2cnc3c(F)c(F)ccc3c2)=N1 (stereo not drawn) [E.016, 2-(7,8-difluoro-3-quinolyl)-4,6,6-trimethyl-4-(2-methylallyl)-5H-1,3-oxazine] | ≥ 80%
CC(C)CC1(C)CC(C)(C(C)C)OC(c2cnc3c(F)cccc3c2)=N1 (stereo not drawn) [E.017, 2-(8-fluoro-3-quinolyl)-4-isobutyl-6-isopropyl-4,6-dimethyl-5H-1,3-oxazine] | ≥ 80%
CCC1(C)CC(C)(CC(C)C)N=C(c2cnc3c(F)cccc3c2)O1 (stereo not drawn) [E.018, 6-ethyl-2-(8-fluoro-3-quinolyl)-4-isobutyl-4,6-dimethyl-5H-1,3-oxazine] | ≥ 80%
C=C(C)CC1(C)CC(C)(C)OC(c2cnc3c(F)cccc3c2)=N1 (stereo not drawn) [E.019, 2-(8-fluoro-3-quinolyl)-4,6,6-trimethyl-4-(2-methylallyl)-5H-1,3-oxazine] | ≥ 80%
C=C(C)CC1(CC)CC(C)(C)OC(c2cnc3c(F)cccc3c2)=N1 (stereo not drawn) [E.020, 4-ethyl-2-(8-fluoro-3-quinolyl)-6,6-dimethyl-4-(2-methylallyl)-5H-1,3-oxazine] | ≥ 80%
